The test system of one data set is vestibular hair cell. The conditions noted are these: by inhibiting NO and ROS production; cited from earlier work.
A short description of data set [1]: Case/control study, subject characteristics of cases with GM-induced vestibular dysfunction. The class given is in vivo, human. The conditions noted are these: attributed to GM therapy. The protocol:
Subjects: Subjects were recruited for participation in a case/control study. Cases were recruited from various vestibular dysfunction support groups through advertisements and direct mailings. Cases were included if they could document profound unilateral or bilateral vestibular loss due specifically to GM administration after the age of 18 yr. […] Normal vestibular function was determined with the use of a clinical balance function questionnaire and medical history information. There are no apparent sex or racial differences in susceptibility to GM-induced vestibular dysfunction, so no inclusion limitations were made on those parameters, although the vast majority of recruited subjects were white. Because allele frequencies for many polymorphisms differ by race and only 10 non-white subjects completed the study, all results are presented for the 263 white participants. Children have higher risk for GM-induced ototoxicity, so only individuals >18 yr. and who were >18 yr. at the time of GM therapy were included. All subjects provided written informed consent and all procedures were approved by the University of Maryland Institutional Review Board.
Procedures: Potential subjects completed medical history and balance function questionnaires, and patients specifically provided medical record release authorizations. […]

The conditions of data set [2]: cited from earlier work.
The conditions of data set [3]: in vivo; cited from earlier work.
The conditions of data set [4]: provided simultaneously with GM; cited from earlier work.

The text below walks through data of US7935485B2, “Genetic polymorphisms for identifying individuals at risk for drug-induced vestibular dysfunction” (University of Maryland College Park, priority 2007, dated 2011).

“Also recorded” adds a separate entry of the source.

Take `O[C@@H]1CO[C@H]2[C@@H]1OC[C@@H]2O` [isosorbide]: the “effect on GM-induced vestibular hair cell death” value with vestibular hair cell is “delay GM-induced vestibular hair cell death”.

With gentamicin [GM], in data set [1], the “Hearing complications, (%)” value is listed as “(34%)” and the “Renal complications, (%)” value is listed as “(14%)”. The vestibular dysfunction entry in data set [2] (GM-treated patients (33), different patients than those with auditory dysfunction) was “three”. Further, the auditory dysfunction entry in data set [2] (GM-treated patients, number affected of 33) was “three of 33”. Further, the metabolism result in data set [3] is reported as “not metabolized, but simply excreted by the kidney; also recorded: not metabolized by the body”.

B1: BDNF: brain-derived neurotrophic factor, a neurotrophic factor (protein, UniProt P23560 19-247, looked up)
Neurotrophic factor BDNF …: APMKEANIRGQGGLAYPGVRTHGTLESVNGPKAGSRGLTSLADTFEHVIEELLDEDQKVRPNEENNKDADLYTSRVMLSSQVPLEPPLLFLLEEYKNYLDAANMSMRVRRHSDPARRGELSVCDSISEWVTAADKKTAVDMSGGTVTVLEKVPVSKGQLKQYFYETKCNPMGYTKEGCRGIDKRHWNSQCRTTQSYVRALTMDSKKRIGWRFIRIDTSCVCTLTIKRGR
Take B1: in data set [4], the “effect on ototoxic damage” value is reported as “limits ototoxic damage”.
